The target of assay [1] is SARS-CoV-2 NSP3 macrodomain (Mac1) (Severe acute respiratory syndrome coronavirus 2, UniProt P0DTD1). As to the kind of experiment: biochemical. The assay is classed as binding.
For assay [2], the target named is SARS-CoV-2 NSP3 macrodomain (Mac1), P43 crystal form (Severe acute respiratory syndrome coronavirus 2, UniProt P0DTD1). In kind it is binding. The conditions noted are these: for 1-BDC: PanDDA background density correction; for X-ray crystal structure: X-ray crystal structure determined (TRUE); for Total number of conformations: ligand conformations modeled in Mac1 crystal structure; for Binding site: site of ligand in X-ray crystal structure; for X-ray crystallography: Binding site: site where the ligand is bound in the X-ray crystal structure.

The mark [3] stands for this setting: crystal soak 10 mM, P43 crystals.
Setting [4] is: occupancy estimate from PanDDA 1-BDC.
[5] abbreviates: crystal soak, soak concentration 10 mM.
[6] abbreviates: crystal soak, soak concentration 10 mM, TRUE = ligand hit.
Setting [7] is: occupancy estimate from PanDDA BDC.

The structures appear in SMILES notation. Like-named read-outs stand apart in the source and are kept apart here. A value given as a limit tells only on which side of the number the result lay.

As a reminder, the Hill slope is a measure of the steepness of the concentration-response curve. Molecule `OCC1CCC2(CCOCC2)CN1c1ncnc2[nH]ccc12` (stereo not shown) [AVI-4065] came in with a Hill slope in assay [1] (HTRF dose-response fit, Mac1) of 1.2. For the same molecule, in assay [1] (dose-response fit), the “SARS CoV-2 macrodomain HTRF assay: Hillslope” value stood at 1.2.
As to `OCC(CC1CCCO1)Nc1ncnc2[nH]ccc12` (stereo not shown) [AVI-3660], in assay [2], the 1-BDC came out at 0.23, the X-ray crystal structure result is on record as “TRUE”, the “Total number of conformations” value came out at 1 and the Binding site entry is on record as “Adenosine”. In assay [2] (setting [3]), the “Pandda run, overall: Hit” value is on record as “TRUE” and the “Pandda run, overall: Modeled” value is on record as “TRUE”. Moreover, in assay [2] (crystal soak 10 mM), the “PanDDA run, DMSO background map: 1-BDC” value was 0.23 and the “PanDDA run, DMSO background map: Hit” value is given as “TRUE”. In assay [2] (setting [4]), the “2*(1-BDC) (%)” value is 46%.
For the molecule `OCC1CC2(CCCCC2)CN1c1ncnc2[nH]ccc12` (stereo not shown) [AVI-3727], in assay [2], the 1-BDC is given as 0.29, the “Total number of conformations” value is reported as 1 and the “X-ray crystallography: Binding site” value was “Adenosine”. Besides, in assay [2] (setting [5]), the “Pandda run, overall: Modeled” value is recorded as “TRUE” and the “Pandda run, overall: Modeling comment” value is “Distal site, weak density, not modeled”. For the same molecule, the “Pandda run, overall: Hit” value in assay [2] (setting [6]) was “TRUE”. In addition, the “2*(1-BDC) (%)” value in assay [2] (setting [4]) was 58%. In assay [2] (soak concentration 10 mM), the “PanDDA run, DMSO background map: 1-BDC” value worked out at 0.29 and the “PanDDA run, DMSO background map: Hit” value was “TRUE”.
Consider `CC(C)(C)C(O)CC(CO)Nc1ncnc2[nH]ccc12.O=C(O)C(F)(F)F` (stereo not shown) [AVI-3714], for which the “Pandda run, overall: Modeling comment” value in assay [2] (setting [5]) is on record as “TFA only”.
By IC50 is commonly meant the midpoint of a concentration-inhibition curve. For `Cc1c[nH]c2ncnc(NCC3(O)CC[S+]([O-])CC3)c12` (stereo not shown) [AVI-4198], the IC50 in assay [1] (dose-response, read-out: SARS CoV-2 macrodomain HTRF assay: IC50) was over 1000 µM.
On to `CC(C)C1CCCN1c1ncnc2[nH]ccc12` (stereo not shown) [AVI-5216], for which, in assay [2], the “Occupancy difference (refined_occupancy - 2*(1-BDC))” value was 14, the “Refined ligand occupancy (%)” value came out at 40%, the 1-BDC is given as 0.13 and the “Total number of conformations” value is on record as 1. In addition, the “X-ray crystallography: Binding site” value in assay [2] is given as “Adenosine”. Besides, in assay [2] (event 1), the “PanDDA run, DMSO background map: 1-BDC” value stood at 0.13. For the same molecule, in assay [2] (setting [7]), the “2*(1-BDC) (%)” value is 26%.
Consider `O=C(O)C(F)(F)F.OC1c2ccccc2CC1Nc1ncnc2[nH]ccc12` (stereo not shown) [AVI-3634], for which the “Pandda run, overall: Modeling comment” value in assay [2] (setting [5]) is “TFA only”.
`OC1CCN(c2ncnc3[nH]ccc23)C1` (stereo not shown) [AVI-3661]: in assay [2], the “Occupancy difference (refined_occupancy - 2*(1-BDC))” value was found to be 10, the “Refined ligand occupancy (%)” value was found to be 40%, the 1-BDC amounted to 0.15 and the “Total number of conformations” value is 1. For the same molecule, the “X-ray crystallography: Binding site” value in assay [2] is “Adenosine”. Also, in assay [2] (setting [3]), the “Pandda run, overall: Hit” value is “TRUE” and the “Pandda run, overall: Modeled” value is “TRUE”. In addition, in assay [2] (crystal soak 10 mM), the “PanDDA run, DMSO background map: 1-BDC” value amounted to 0.15 and the “PanDDA run, DMSO background map: Hit” value is on record as “TRUE”. Also, the “2*(1-BDC) (%)” value in assay [2] (setting [7]) is reported as 30%. The “Refined TFA occupancy (%)” value in assay [2] (occupancy of TFA in the dataset of the named ligand) worked out at 20%.
`CN1CCN(c2ncnc3[nH]ccc23)C(CO)C1` (stereo not shown) [AVI-3721]: in assay [2], the 1-BDC was 0.06, the “Total number of conformations” value is reported as 2 and the “X-ray crystallography: Binding site” value is recorded as “Adenosine”. For the same molecule, the “Pandda run, overall: Modeled” value in assay [2] (setting [5]) is given as “TRUE”. In assay [2] (setting [6]), the “Pandda run, overall: Hit” value was “TRUE”. Further, the “2*(1-BDC) (%)” value in assay [2] (setting [4]) is given as 12%. Further, in assay [2] (soak concentration 10 mM), the “PanDDA run, DMSO background map: 1-BDC” value came out at 0.06 and the “PanDDA run, DMSO background map: Hit” value is “TRUE”.
As to `CCC(Nc1ncnc2[nH]ccc12)C(C)(C)O` (stereo not shown) [AVI-3667], in assay [2], the 1-BDC turned out to be 0.14, the X-ray crystal structure result is “TRUE”, the “Total number of conformations” value is recorded as 1 and the Binding site entry is on record as “Adenosine”. For the same molecule, in assay [2] (setting [3]), the “Pandda run, overall: Hit” value is “TRUE” and the “Pandda run, overall: Modeled” value is on record as “TRUE”. Also, in assay [2] (crystal soak 10 mM), the “PanDDA run, DMSO background map: 1-BDC” value is 0.14 and the “PanDDA run, DMSO background map: Hit” value is on record as “TRUE”. For the same molecule, the “2*(1-BDC) (%)” value in assay [2] (setting [4]) was 28%.
In the case of `O=C(O)C(F)(F)F.OCC(Cc1cccc(F)c1)Nc1ncnc2[nH]ccc12` (stereo not shown) [AVI-3706], the “Pandda run, overall: Modeling comment” value in assay [2] (setting [5]) is “TFA only”.
Turning to `OC[C@@H]1C[C@H](F)CN1c1ncnc2[nH]ccc12` [AVI-609], in assay [2], the 1-BDC was determined as 0.17, the “Total number of conformations” value came out at 1 and the “X-ray crystallography: Binding site” value was “Adenosine”. The “Pandda run, overall: Modeled” value in assay [2] (setting [5]) is recorded as “TRUE”. Besides, the “Pandda run, overall: Hit” value in assay [2] (setting [6]) is listed as “TRUE”. Moreover, the “2*(1-BDC) (%)” value in assay [2] (setting [4]) is recorded as 34%. Moreover, in assay [2] (soak concentration 10 mM), the “PanDDA run, DMSO background map: 1-BDC” value was determined as 0.17 and the “PanDDA run, DMSO background map: Hit” value was “TRUE”.

(Values after paper doi:10.1101/2024.08.25.609621 (bioRxiv, 2024).)
